For 1 compound, Activity, IC50 and inhibition in vivo results are on record in ChEMBL document CHEMBL5532646, “Discovery of 4-(N-dithiobenzyl piperazine)-1,8-naphthalimide as a potent multi-target antitumor agent with good efficacy, limited toxicity, and low resistance” (Eur J Med Chem, 2024).

Activity calls are given as the source filed them. No cut-off for these calls is given here.

Series [1] relates to T-24. Kind of series: Anti-migratory activity against human T24 cells at 5 uM incubated upto 48 hrs in presence of FR180204 by wound healing assay. The class given is functional, cell-based.
Another series has as its system A549/CDDP. The experiment in a line: Antiproliferative activity against human A549/DDP cells incubated for 48 hrs by MTT assay. The class given is functional, cell-based. A general note: Formazan colour is commonly taken as a measure of viable cells.
The subject of series [2] is T-24. Kind of series: Antiproliferative activity against human T24 cells incubated for 48 hrs by MTT assay. Format: functional, cell-based. As to conditions: T-24, 48 h.
Series [3] relates to T-24. The experiment in a line: Upregulation of fatty acid metabolism in human T24 cells at 5 uM incubated for 24 hrs by KEGG analysis. Format: functional, cell-based.
For series [4], the system named is T-24. The experiment in a line: Induction of cell cycle arrest at S phase in human T24 cells at 5 uM incubated for 24 hrs by flow cytometry (reference value: 12.39 %). The class given is functional. On the technique in general: Flow cytometry measures light scatter and fluorescence of single cells or particles in a stream.
Series [5] deals with T-24. Kind of series: Induction of apoptosis in human T24 cells assessed as increase in Bak level at 2 to 8 uM incubated for 24 hrs by Western blot analysis. The following applies: dose 2-8 µM. Format: functional, cell-based. For orientation: Immunoblotting shows a protein as a band on a membrane.
Series [6] is described as follows: Toxicity in nude mouse model xenografted with human T24 cells assessed as pathological change in liver at 15 mg/kg, ip administered once every two days for 21 days. The following applies: in vivo, 504 h, time 21 day. Format: organism-based, T-24.
The subject of series [7] is T-24. The experiment in a line: Anti-migratory activity against human T24 cells incubated upto 48 hrs by wound healing assay. Format: functional, cell-based.
In series [8] the test system is T-24. Kind of series: Downregulation of AKT1 level in human T24 cells at 2 to 8 uM incubated for 24 hrs by Western blot analysis. The following applies: dose 2-8 µM. Format: functional, cell-based.
The subject of series [9] is T-24. Kind of series: Downregulation of mTOR level in human T24 cells at 2 to 8 uM incubated for 24 hrs by Western blot analysis. Format: functional, cell-based. The following applies: dose 2-8 µM.
In the next series the test system is HUVEC. Kind of series: Antiproliferative activity against HUVEC cells incubated for 48 hrs by MTT assay. The following applies: Homo sapiens. The class given is functional, cell-based.
Series [10] has as its system T-24. Kind of series: Induction of ferroptosis in human T24 cells assessed as increase in iron level at 5 uM incubated for 24 hrs by FerrOrange probe based confocal microscopy. The class given is functional, cell-based.
Another series relates to SK-OV-3. The experiment in a line: Antiproliferative activity against human SK-OV-3 cells incubated for 48 hrs by MTT assay. Format: functional, cell-based. As to conditions: SK-OV-3, 48 h.
Series [11] deals with T-24. Kind of series: Upregulation of ERK1/2 phosphorylation in human T24 cells incubated for 24 hrs by Western blot analysis. The class given is functional, cell-based. The following applies: dose 2-8 µM.
Series [12] relates to HepG2. Kind of series: Antiproliferative activity against human HepG2 cells incubated for 48 hrs by MTT assay. The class given is functional, cell-based. As to conditions: HepG2, 48 h.
For series [13], the system named is T-24. The experiment in a line: Induction of ferroptosis in human T24 cells assessed as increase in lipid peroxide level at 5 uM incubated for 24 hrs by fluorescence based analysis. The class given is functional, cell-based.
A short description of series [14]: Toxicity in nude mouse model xenografted with human HepG2 cells assessed as pathological change in heart at 15 mg/kg, ip administered once every two days for 21 days. The class given is organism-based. As to conditions: in vivo, 504 h, time 21 day.
For series [15], the system named is T-24. The experiment in a line: Induction of ferroptosis in human T24 cells assessed as increase in superoxide anion level at 5 uM incubated for 24 hrs by DHE probe based analysis. Format: functional, cell-based.
Series [16] can be described thus: Toxicity in nude mouse model xenografted with human HepG2 cells assessed as pathological change in liver at 15 mg/kg, ip administered once every two days for 21 days. Format: organism-based. The following applies: in vivo, 504 h, time 21 day.
The test system of series [17] is T-24. The experiment in a line: Effect on cell cycle pathway in human T24 cells at 5 uM incubated for 24 hrs by KEGG analysis. Format: functional, cell-based.
Series [18] concerns T-24. Kind of series: Induction of apoptosis in human T24 cells assessed as increase in Bax level at 2 to 8 uM incubated for 24 hrs by Western blot analysis. Format: functional, cell-based. The following applies: dose 2-8 µM.
For series [19], the system named is T-24. Kind of series: Induction of cell cycle arrest at G1/S phase in human T24 cells incubated for 24 hrs by flow cytometry. Format: functional, cell-based. As to conditions: dose 2-8 µM.
In series [20] the test system is HepG2. Kind of series: Antiproliferative activity against human HepG2 cells xenografted in nude mouse model assessed as tumor inhibition rate at 15 mg/kg, ip administered once every two days for 21 days relative to control. Format: functional. The following applies: HepG2, 504 h, time 21 day.
The subject of series [21] is T-24. The experiment in a line: Downregulation of pAKT1 at S473 level in human T24 cells at 2 to 8 uM incubated for 24 hrs by Western blot analysis. The class given is functional, cell-based. As to conditions: dose 2-8 µM.

Broadly, the IC50 is the point on the concentration scale where inhibition reaches its midpoint. A lower IC50 goes with greater potency. One may read the inhibition in vivo as the change of the read-out against control, counted positive when it falls.

For `CN(C)CCN1C(=O)c2cccc3c(N4CCN(C(=S)SCc5ccccc5)CC4)ccc(c23)C1=O`, the result with T-24 [1] was inactive. Besides, the outcome in the series on A549/CDDP, in the series with T-24 [3], in the series with T-24 [5], with T-24 [8], in the series on T-24 [9] and in the series with T-24 [10] was Active. The outcome with T-24 [13], in the series with T-24 [15], in the series on T-24 [17], in the series on T-24 [18] and with T-24 [21] was Active. Besides, the IC50 in the series with T-24 [2] was found to be 3.03 µM; in the series with HUVEC, 16.7 µM; in the series on SK-OV-3, 1.43 µM; in the series with HepG2 [12] it was 3.6 µM. Besides, the Activity was 30.58% in the series on T-24 [4]; “Non-Toxic” in series [6]; “Dose-Dependent Effect” in the series with T-24 [7]; “Dose-Dependent Effect” with T-24 [11]; “Non-Toxic” in [14]; “Non-Toxic” in [16]. In addition, the Activity result in the series with T-24 [19] is “Dose-Dependent Effect”. Moreover, the inhibition in vivo at 15 mg/kg in the series on HepG2 [20] stood at 50%.
